33 compounds from ChEMBL document CHEMBL5352463, “Synthesis of novel glutarimide ligands for the E3 ligase substrate receptor Cereblon (CRBN): Investigation of their binding mode and antiproliferative effects against myeloma cell lines” (Eur J Med Chem, 2023) can be followed below.

Active and inactive are the calls of the source. The calls are words filed in the database; no cut-off is given here.

Usually IC50 stands for the midpoint of a concentration-inhibition curve.

One data set deals with KMS-12-PE. The data set is described as follows: Antiproliferative activity against human KMS-12-PE cells assessed as inhibition of cell proliferation incubated for 48 hrs by CellTiter Glo luminescence based […]. The data set is classed as functional.
Another data set relates to MOLP-8. Briefly: cells. The note with it: Homo sapiens, MOLP-8, 48 h.
Data set [1] concerns the target Protein cereblon (Homo sapiens) (UniProt Q96SW2). Briefly: Binding affinity to human CRBN thalidomide binding domain by microscale thermophoresis analysis. For orientation: MST reads how a fluorescent partner responds to local heating, with and without ligand.
Data set [2] in a line: Cytotoxicity against PBMC (unknown origin) cells assessed as inhibition of cell growth incubated for 48 hrs by CellTiter Glo luminescence based […]. The data set is classed as toxicity. Background: Cellular ATP, detected with luciferase, serves as a proxy for viable cell number.

Protein cereblon (Homo sapiens), sequence (Q96SW2 whole entry, the tested form may be a part): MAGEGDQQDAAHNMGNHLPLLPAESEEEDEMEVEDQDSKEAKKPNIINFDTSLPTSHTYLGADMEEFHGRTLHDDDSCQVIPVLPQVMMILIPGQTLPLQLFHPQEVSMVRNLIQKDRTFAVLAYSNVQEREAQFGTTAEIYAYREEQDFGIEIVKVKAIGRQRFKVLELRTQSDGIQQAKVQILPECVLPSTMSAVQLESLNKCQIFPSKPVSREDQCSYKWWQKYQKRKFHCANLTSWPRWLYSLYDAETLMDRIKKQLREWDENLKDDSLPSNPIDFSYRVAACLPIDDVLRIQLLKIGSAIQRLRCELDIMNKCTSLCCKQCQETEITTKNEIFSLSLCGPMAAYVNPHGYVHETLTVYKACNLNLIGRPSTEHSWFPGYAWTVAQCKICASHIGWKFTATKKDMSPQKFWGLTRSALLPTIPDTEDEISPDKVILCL
Description for MOLP-8: Antiproliferative activity against human MOLP8 cells assessed as inhibition of cell proliferation incubated for 48 hrs by CellTiter Glo luminescence based MTT assay

Consider `COc1ccc(CSCC2CCC(=O)NC2=O)cc1` (stereo unspecified), for which the values for the IC50 in the data set with KMS-12-PE and in the data set with MOLP-8 were more than 100 µM and 73.2 µM, respectively.

For `O=C1CCC(CS(=O)(=O)Cc2ccccc2)C(=O)N1` (stereo unspecified), the IC50 was determined as 5.17 µM in the data set with KMS-12-PE and 5.52 µM in the data set on MOLP-8.

As for `O=C1CCC(CSc2ccccc2C(=O)O)C(=O)N1` (stereo unspecified), the IC50 in the data set with KMS-12-PE and with MOLP-8 was more than 100 µM in each case. Besides, in data set [1], the outcome was inactive.

Turning to `CN1C(=O)CCC(CSc2ccccc2)C1=O` (stereo unspecified), the IC50 with KMS-12-PE was more than 100 µM; in the data set on MOLP-8, 85.9 µM. Besides, in data set [1], the outcome was inactive.

In the case of `CC(=O)Nc1ccc(SCC2CCC(=O)NC2=O)cc1` (stereo unspecified), half-maximal inhibition in the data set on MOLP-8 (IC50) required 38.3 µM.

Turning to `O=C1CCC(CSc2ncccn2)C(=O)N1` (stereo unspecified), the IC50 in the data set on KMS-12-PE worked out at 36.7 µM; in the data set on MOLP-8, 23.9 µM.

On to `Cc1ccc(SCC2CCC(=O)NC2=O)cc1` (stereo unspecified), for which the IC50 with KMS-12-PE was 40 µM; with MOLP-8, 38.1 µM.

Turning to `Cc1ccc(S(=O)(=O)CC2CCC(=O)NC2=O)cc1` (stereo unspecified), the IC50 was 6.12 µM with KMS-12-PE and 5.3 µM in the data set on MOLP-8.

As for `O=C1CCC(CSc2ccc([N+](=O)[O-])cc2)C(=O)N1` (stereo unspecified), 8.43 µM corresponded to half-maximal inhibition in the data set with MOLP-8 (IC50).

With `Nc1cccc(SCC2CCC(=O)NC2=O)c1` (stereo unspecified), the IC50 at 48 h in data set [2] is more than 200 µM. The IC50 in the data set with KMS-12-PE is more than 90 µM; in the data set with MOLP-8 it was 41.2 µM.

Regarding `O=C1CCC(CSc2ccccc2)C(=O)N1` (stereo unspecified), the IC50 with KMS-12-PE was 36.4 µM; in the data set on MOLP-8, 40 µM.

In the case of `O=C1CCC(CSc2ccc(Cl)cc2)C(=O)N1` (stereo unspecified), the IC50 in the data set with KMS-12-PE was found to be 16.2 µM; with MOLP-8, 20.5 µM.

On to `Cc1ccnc(SCC2CCC(=O)NC2=O)n1` (stereo unspecified), for which the IC50 in the data set with KMS-12-PE was determined as 36.8 µM; with MOLP-8 it was 11.9 µM.

As for `Nc1ccccc1SCC1CCC(=O)NC1=O` (stereo unspecified), in data set [2], the IC50 at 48 h came out at 71.8 µM. Moreover, the IC50 was found to be 38.5 µM in the data set on KMS-12-PE and 32.3 µM with MOLP-8.

Consider `O=C1CCC(CSc2ccccn2)C(=O)N1` (stereo unspecified), for which the half-maximal inhibitory concentration (IC50) in the data set on KMS-12-PE was found to be 13.3 µM; in the data set on MOLP-8, 27.4 µM.

For the compound `CN1C(=O)CCC(CSc2ccc(Cl)cc2)C1=O` (stereo unspecified), the IC50 in the data set on KMS-12-PE was 45.5 µM; in the data set with MOLP-8, 80.8 µM. Further, the result in data set [1] was inactive.

With `O=C1CCC(CS(=O)(=O)c2ccccc2)C(=O)N1` (stereo unspecified), the figures for the IC50 in the data set on KMS-12-PE and in the data set with MOLP-8 were 6 µM and 5.72 µM, respectively.

In turn, `O=C1CCC(CSCc2ccccc2)C(=O)N1` (stereo unspecified) had an IC50 in the data set with MOLP-8 of more than 100 µM.

In the data set with MOLP-8, `O=C1CCC(SCc2ccccc2)C(=O)N1` (stereo unspecified) registered an IC50 of more than 100 µM.

Turning to `COC(=O)c1ccccc1SCC1CCC(=O)NC1=O` (stereo unspecified), the IC50 with KMS-12-PE worked out at 32.6 µM; in the data set with MOLP-8 it was 19.8 µM.

As for `Nc1ccc(SCC2CCC(=O)NC2=O)cc1` (stereo unspecified), the IC50 at 48 h in data set [2] is more than 200 µM. Moreover, the IC50 was more than 90 µM with KMS-12-PE and 44.3 µM with MOLP-8.

`CC(=O)Nc1cccc(SCC2CCC(=O)NC2=O)c1` (stereo unspecified): in the data set with MOLP-8, the IC50 came out at 49.5 µM.

Consider `O=C1CCC(CSc2ccc(F)cc2)C(=O)N1` (stereo unspecified), for which the results for the IC50 in the data set on KMS-12-PE and in the data set with MOLP-8 were 29.8 µM and 32 µM, respectively.

Turning to `O=C1CCC(CSc2ccccc2[N+](=O)[O-])C(=O)N1` (stereo unspecified), the IC50 turned out to be 13.3 µM in the data set with KMS-12-PE and 12.8 µM in the data set on MOLP-8.

In the case of `O=C1CCC(CSc2ccc(Br)cc2)C(=O)N1` (stereo unspecified), the IC50 in the data set with KMS-12-PE amounted to 12.9 µM; in the data set on MOLP-8 it was 18.3 µM.

`Cn1cnnc1SCC1CCC(=O)NC1=O` (stereo unspecified): the IC50 in the data set on KMS-12-PE and with MOLP-8 was more than 100 µM each time.

`O=C1CCC(CSc2cccc([N+](=O)[O-])c2)C(=O)N1` (stereo unspecified): the IC50 was determined as 13.6 µM with KMS-12-PE and 15.9 µM in the data set on MOLP-8.

`O=C1CCC(CS(=O)(=O)c2ccc(F)cc2)C(=O)N1` (stereo unspecified): the values for the IC50 in the data set on KMS-12-PE and in the data set on MOLP-8 were 6.45 µM and 5.8 µM, respectively.

Regarding `Cc1cc(C)c(SCC2CCC(=O)NC2=O)c(C)c1` (stereo unspecified), the IC50 was found to be 23.1 µM in the data set on KMS-12-PE and 21 µM in the data set with MOLP-8.

`COc1ccc(CS(=O)(=O)CC2CCC(=O)NC2=O)cc1` (stereo unspecified): the IC50 was found to be 5.88 µM with KMS-12-PE and 6.27 µM in the data set with MOLP-8.

In the case of `O=C1CCC(CS(=O)(=O)c2ccc(Cl)cc2)C(=O)N1` (stereo unspecified), the values for the IC50 in the data set with KMS-12-PE and in the data set with MOLP-8 were 5.9 µM and 6.81 µM, respectively.

Turning to `CC(=O)Nc1ccccc1SCC1CCC(=O)NC1=O` (stereo unspecified), in the data set on MOLP-8, the IC50 turned out to be 27.4 µM.

Consider `O=C1CCC(N2C(=O)c3ccccc3C2=O)C(=O)N1` (stereo unspecified) [THALIDOMIDE], for which the IC50 in the data set with KMS-12-PE and in the data set with MOLP-8 was more than 75 µM each time.
